Experimental data as given in ChEMBL document CHEMBL1142873, “Synthesis, structural activity relationship and anti-tubercular activity of novel pyrazoline derivatives” (2007).
Values after ≈ are worked out from the molar mass of the structure shown.

Key:
Format in all cases: functional
[1] = test system: Mycobacterium tuberculosis; assay: Antimycobacterial activity against Mycobacterium tuberculosis H37Rv
[2] = test system: Mycobacterium tuberculosis; assay: Antimycobacterial activity against Mycobacterium tuberculosis H37Rv at 0.0148 uM
[3] = test system: Mycobacterium tuberculosis; assay: Antimycobacterial activity against Mycobacterium tuberculosis H37Rv at 0.1706 uM
[4] = test system: Mycobacterium tuberculosis; assay: Antimycobacterial activity against Mycobacterium tuberculosis H37Rv at 0.0403 uM
[5] = test system: Mycobacterium tuberculosis; assay: Antimycobacterial activity against Mycobacterium tuberculosis H37Rv at 0.0140 uM
[6] = test system: Mycobacterium tuberculosis; assay: Antimycobacterial activity against Mycobacterium tuberculosis H37Rv at 0.0138 uM
[7] = test system: Mycobacterium tuberculosis; assay: Antimycobacterial activity against Mycobacterium tuberculosis H37Rv at 0.0118 uM
[8] = test system: Mycobacterium tuberculosis; assay: Antimycobacterial activity against Mycobacterium tuberculosis H37Rv at 0.0132 uM
[9] = test system: Mycobacterium tuberculosis; assay: Antimycobacterial activity against Mycobacterium tuberculosis H37Rv at 0.1467 uM
[10] = test system: Mycobacterium tuberculosis; assay: Antimycobacterial activity against Mycobacterium tuberculosis H37Rv at 0.0143 uM
[11] = test system: Mycobacterium tuberculosis; assay: Antimycobacterial activity against Mycobacterium tuberculosis H37Rv at 0.0354 uM
[12] = test system: Mycobacterium tuberculosis; assay: Antimycobacterial activity against Mycobacterium tuberculosis H37Rv at 0.0164 uM
[13] = test system: Mycobacterium tuberculosis; assay: Antimycobacterial activity against Mycobacterium tuberculosis H37Rv at 0.0150 uM
[14] = test system: Mycobacterium tuberculosis; assay: Antimycobacterial activity against Mycobacterium tuberculosis H37Rv at 0.0135 uM
[15] = test system: Mycobacterium tuberculosis; assay: Antimycobacterial activity against Mycobacterium tuberculosis H37Rv at 0.0034 uM
[16] = test system: Mycobacterium tuberculosis; assay: Antimycobacterial activity against Mycobacterium tuberculosis H37Rv at 0.0084 uM
[17] = test system: Mycobacterium tuberculosis; assay: Antimycobacterial activity against Mycobacterium tuberculosis H37Rv at 0.0202 uM
[18] = test system: Mycobacterium tuberculosis; assay: Antimycobacterial activity against Mycobacterium tuberculosis H37Rv at 0.0977 uM
[19] = test system: Mycobacterium tuberculosis; assay: Antimycobacterial activity against Mycobacterium tuberculosis H37Rv at 0.2080 uM
[20] = test system: Mycobacterium tuberculosis; assay: Antimycobacterial activity against Mycobacterium tuberculosis H37Rv at 0.0092 uM
[21] = test system: Mycobacterium tuberculosis; assay: Antimycobacterial activity against Mycobacterium tuberculosis H37Rv at 0.0149 uM
[22] = test system: Mycobacterium tuberculosis; assay: Antimycobacterial activity against Mycobacterium tuberculosis H37Rv at 0.0201 uM

Cc1cc(C2=NN(C(=S)Nc3ccccc3C)C(c3ccc(F)cc3)C2)ccc1O (stereo not given) was tested, and the MIC [1] was 6.25 µg/mL (≈ 14.9 µM) and the inhibition at 0.0148 µM [2] was 32%.
In the case of Cc1cc(C2=NN(C(=S)Nc3ccccc3C)C(Cc3ccco3)C2)ccc1O (stereo not given), the inhibition at 0.1706 µM [3] is reported as 26%.
In the case of COc1ccc(C2CC(c3ccc(O)c(C)c3)=NN2C(=S)Nc2ccccc2C)cc1 (stereo not given), the inhibition at 0.0403 µM [4] is reported as 6%.
Cc1cc(C2=NN(C(=S)Nc3ccccc3C)C(c3ccc(N(C)C)cc3)C2)ccc1O (stereo not given) was tested, and the MIC [1] was 6.25 µg/mL (≈ 14.1 µM) and the inhibition at 0.014 µM [5] was 12%.
COc1ccccc1NC(=S)N1N=C(c2ccc(O)c(C)c2)CC1c1ccc(Cl)cc1 (stereo not given) was tested, and the MIC [1] was 6.25 µg/mL (≈ 13.8 µM) and the inhibition at 0.0138 µM [6] was 4%.
Compound COc1ccccc1NC(=S)N1N=C(c2ccc(O)c(C)c2)CC1c1ccc(OC)c(OC)c1 (stereo not given) has an MIC [1] of 5.67 µg/mL (≈ 11.9 µM) and an inhibition at 0.0118 µM [7] of 88%.
Cc1cc(C2=NN(C(=S)Nc3ccccc3C)C(c3cccc([N+](=O)[O-])c3)C2)ccc1O (stereo not given) gave an MIC [1] of 6.25 µg/mL (≈ 14 µM) and an inhibition at 0.0132 µM [8] of 14%.
With COc1cc(C2CC(c3ccc(O)c(C)c3)=NN2C(=S)Nc2ccccc2C)cc(OC)c1OC (stereo not given) the inhibition at 0.1467 µM [9] was 44%.
Compound Cc1cc(C2=NN(C(=S)Nc3ccccc3C)C(c3c(Cl)cccc3Cl)C2)ccc1O (stereo not given) has an inhibition at 0.0143 µM [10] of 21% and an MIC [1] of 6.25 µg/mL (≈ 13.3 µM).
With Cc1cc(C2=NN(C(=S)Nc3ccccc3C)C(c3ccccc3)C2)ccc1O (stereo not given) the inhibition at 0.0354 µM [11] was 29%.
In the case of COc1ccccc1NC(=S)N1N=C(c2ccc(O)c(C)c2)CC1c1ccc(F)cc1 (stereo not given), the inhibition at 0.0164 µM [12] is reported as 16%.
Compound NNC(=O)c1ccncc1 [ISONIAZID] has an MIC [1] of 0.025 µg/mL (≈ 0.182 µM).
Work on Cc1cc(C2=NN(C(=S)Nc3ccccc3C)C(c3ccccc3Cl)C2)ccc1O (stereo not given) yielded an MIC [1] of 6.25 µg/mL (≈ 14.3 µM) and an inhibition at 0.015 µM [13] of 33%.
Work on COc1ccccc1NC(=S)N1N=C(c2ccc(O)c(C)c2)CC1c1ccc(N(C)C)cc1 (stereo not given) yielded an MIC [1] of 6.25 µg/mL (≈ 13.6 µM) and an inhibition at 0.0135 µM [14] of 28%.
COc1ccccc1NC(=S)N1N=C(c2ccc(O)c(C)c2)CC1c1c(Cl)cccc1Cl (stereo not given) showed an MIC [1] of 1.66 µg/mL (≈ 3.41 µM) and an inhibition at 0.0034 µM [15] of 98%.
For COc1ccccc1NC(=S)N1N=C(c2ccc(O)c(C)c2)CC1c1cc(OC)c(OC)c(OC)c1 (stereo not given), the inhibition at 0.0084 µM [16] was 92%.
Compound COc1ccccc1NC(=S)N1N=C(c2ccc(O)c(C)c2)CC1c1ccccc1Cl (stereo not given) has an inhibition at 0.0202 µM [17] of 44%.
For Cc1cc(C2=NN(C(=S)Nc3ccccc3C)C(c3ccc(Cl)cc3)C2)ccc1O (stereo not given), the inhibition at 0.0143 µM [10] was 44% and the MIC [1] was 6.25 µg/mL (≈ 14.3 µM).
With COc1ccc(C2CC(c3ccc(O)c(C)c3)=NN2C(=S)Nc2ccccc2C)cc1OC (stereo not given) the inhibition at 0.0977 µM [18] was 72%.
For COc1ccccc1NC(=S)N1N=C(c2ccc(O)c(C)c2)CC1c1cccc([N+](=O)[O-])c1 (stereo not given), the inhibition at 0.208 µM [19] was 8%.
For COc1ccc(C2CC(c3ccc(O)c(C)c3)=NN2C(=S)Nc2ccccc2OC)cc1 (stereo not given), the MIC [1] was 4.12 µg/mL (≈ 9.21 µM) and the inhibition at 0.0092 µM [20] was 94%.
With COc1ccccc1NC(=S)N1N=C(c2ccc(O)c(C)c2)CC1c1ccccc1 (stereo not given) the MIC [1] was 6.25 µg/mL (≈ 15 µM) and the inhibition at 0.0149 µM [21] was 6%.
Compound COc1ccccc1NC(=S)N1N=C(c2ccc(O)c(C)c2)CC1Cc1ccco1 (stereo not given) has an inhibition at 0.0201 µM [22] of 18%.
